Measurements taken from the supplement of paper PMC10307832.

Compound: CC1=C(N=C(N=C1N)[C@H](CC(=O)N)NC[C@@H](C(=O)N)N)C(=O)N[C@@H]([C@H](C2=CN=CN2)OC3C(C(C(C(O3)CO)O)O)OC4C(C(C(C(O4)CO)O)OC(=O)N)O)C(=O)N[C@H](C)[C@H]([C@H](C)C(=O)N[C@@H]([C@@H](C)O)C(=O)NCCC5=NC(=CS5)C6=NC(=CS6)C(=O)NCCC[S+](C)C)O [Bleomycin] + CCNC(=O)c1noc(-c2cc(C(C)C)c(O)cc2O)c1-c1ccc(CN2CCOCC2)cc1 [Luminespib] (partner 0.01 µM)
Assay: relative viability (nuclei count vs DMSO), 5 days (fraction); higher = more cells survive
Settings: first compound 1 µM; main component drawn
Outline: (§1)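 For relative viability, nuclei counts in treated wells were divided by those in vehicle wells. Lung cancer cell lines had been pin-tool dosed in 1536-well plates the day after seeding and cultured for 5 days, then fixed and stained in one step (final 0.05% Triton X-100, 1% formaldehyde, 1 ug/ml Hoechst) and imaged at 4×. Doses were one drug alone or a fixed anchor-drug dose plus five library-drug doses (not always all listed) in √10 steps, and values are duplicate-plate medians.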

Q: With RERF-LC-KJ as the cell line, how does the relative viability read?
A: Its relative viability is 0.287.

Compound: CC1=C(N=C(N=C1N)[C@H](CC(=O)N)NC[C@@H](C(=O)N)N)C(=O)N[C@@H]([C@H](C2=CN=CN2)OC3C(C(C(C(O3)CO)O)O)OC4C(C(C(C(O4)CO)O)OC(=O)N)O)C(=O)N[C@H](C)[C@H]([C@H](C)C(=O)N[C@@H]([C@@H](C)O)C(=O)NCCC5=NC(=CS5)C6=NC(=CS6)C(=O)NCCC[S+](C)C)O [Bleomycin] + Cc1nc(Nc2ncc(C(=O)Nc3c(C)cccc3Cl)s2)cc(N2CCN(CCO)CC2)n1 [Dasatinib] (partner 0.075 µM)
Assay: as above
Settings: first compound 0.01 µM; main component drawn
Outline: as §1

Q: With NCI-H1755 as the cell line, how does the relative viability read?
A: Its relative viability is 0.409.

Q: For NCI-H2023, which relative viability is on record?
A: Its relative viability is 0.345.

Q: HCC-15 was tested. Which relative viability did it give?
A: Its relative viability is 0.613.

Q: Which relative viability does the source give for NCI-H1793 here?
A: Its relative viability is 0.382.

Q: With PC-3 [JPC-3] as the cell line, how does the relative viability read?
A: The relative viability was 0.881.

Q: How did the relative viability turn out when EKVX was run?
A: The relative viability was 0.56.

Q: How did the relative viability turn out when LC-2-ad was run?
A: Its relative viability is 0.312.

Q: NCI-H1944 was tested. Which relative viability did it give?
A: Its relative viability is 0.173.

Q: NCI-H1975 was tested. Which relative viability did it give?
A: Its relative viability is 0.34.

Q: Which relative viability does the source give for SK-LU-1 here?
A: Its relative viability is 0.169.

Q: Which relative viability does the source give for ABC-1 here?
A: Its relative viability is 0.516.

Q: Which relative viability does the source give for NCI-H358 here?
A: Its relative viability is 0.183.

Q: NCI-H661 was tested. Which relative viability did it give?
A: The relative viability was 0.741.

Q: Which relative viability does the source give for RERF-LC-KJ here?
A: Its relative viability is 0.498.

Same assay, conditions: first compound 0.03162 µM; main component drawn

Q: Which relative viability does the source give for NCI-H1755 here?
A: The relative viability was 0.433.

Q: With NCI-H2023 as the cell line, how does the relative viability read?
A: Its relative viability is 0.316.

Q: HCC-15 was tested. Which relative viability did it give?
A: The relative viability was 0.559.

Q: Which relative viability does the source give for NCI-H1793 here?
A: Its relative viability is 0.427.

Q: How did the relative viability turn out when PC-3 [JPC-3] was run?
A: Its relative viability is 1.09.

Q: For EKVX, which relative viability is on record?
A: The relative viability was 0.435.

Q: How did the relative viability turn out when LC-2-ad was run?
A: Its relative viability is 0.373.

Q: How did the relative viability turn out when NCI-H1944 was run?
A: Its relative viability is 0.177.

Q: How did the relative viability turn out when NCI-H1975 was run?
A: Its relative viability is 0.343.

Q: For SK-LU-1, which relative viability is on record?
A: Its relative viability is 0.166.

Q: How did the relative viability turn out when ABC-1 was run?
A: The relative viability was 0.53.

Q: With NCI-H358 as the cell line, how does the relative viability read?
A: The relative viability was 0.165.

Q: NCI-H661 was tested. Which relative viability did it give?
A: Its relative viability is 0.657.

Q: How did the relative viability turn out when RERF-LC-KJ was run?
A: The relative viability was 0.56.

Same assay, conditions: first compound 0.1 µM; main component drawn

Q: With NCI-H1755 as the cell line, how does the relative viability read?
A: The relative viability was 0.407.

Q: For NCI-H2023, which relative viability is on record?
A: The relative viability was 0.302.

Q: HCC-15 was tested. Which relative viability did it give?
A: The relative viability was 0.515.

Q: NCI-H1793 was tested. Which relative viability did it give?
A: The relative viability was 0.329.

Q: Which relative viability does the source give for PC-3 [JPC-3] here?
A: Its relative viability is 0.986.

Q: For EKVX, which relative viability is on record?
A: Its relative viability is 0.502.

Q: For LC-2-ad, which relative viability is on record?
A: The relative viability was 0.318.

Q: For NCI-H1944, which relative viability is on record?
A: Its relative viability is 0.159.

Q: For NCI-H1975, which relative viability is on record?
A: Its relative viability is 0.287.

Q: SK-LU-1 was tested. Which relative viability did it give?
A: Its relative viability is 0.173.

Q: For ABC-1, which relative viability is on record?
A: Its relative viability is 0.61.

Q: NCI-H358 was tested. Which relative viability did it give?
A: Its relative viability is 0.176.

Q: For NCI-H661, which relative viability is on record?
A: Its relative viability is 0.623.

Q: RERF-LC-KJ was tested. Which relative viability did it give?
A: Its relative viability is 0.468.

Same assay, conditions: first compound 0.3162 µM; main component drawn

Q: With NCI-H1755 as the cell line, how does the relative viability read?
A: Its relative viability is 0.454.

Q: How did the relative viability turn out when NCI-H2023 was run?
A: The relative viability was 0.163.

Q: How did the relative viability turn out when HCC-15 was run?
A: Its relative viability is 0.0886.

Q: For NCI-H1793, which relative viability is on record?
A: Its relative viability is 0.17.

Q: For PC-3 [JPC-3], which relative viability is on record?
A: Its relative viability is 0.72.

Q: How did the relative viability turn out when EKVX was run?
A: The relative viability was 0.276.

Q: LC-2-ad was tested. Which relative viability did it give?
A: The relative viability was 0.183.

Q: With NCI-H1944 as the cell line, how does the relative viability read?
A: The relative viability was 0.115.

Q: With NCI-H1975 as the cell line, how does the relative viability read?
A: The relative viability was 0.13.

Q: How did the relative viability turn out when SK-LU-1 was run?
A: Its relative viability is 0.144.

Q: Which relative viability does the source give for ABC-1 here?
A: Its relative viability is 0.31.

Q: Which relative viability does the source give for NCI-H358 here?
A: The relative viability was 0.107.

Q: For NCI-H661, which relative viability is on record?
A: Its relative viability is 0.262.

Q: With RERF-LC-KJ as the cell line, how does the relative viability read?
A: The relative viability was 0.246.

Same assay, conditions: first compound 1 µM; main component drawn

Q: How did the relative viability turn out when NCI-H1755 was run?
A: Its relative viability is 0.29.

Q: Which relative viability does the source give for NCI-H2023 here?
A: Its relative viability is 0.129.

Q: For HCC-15, which relative viability is on record?
A: Its relative viability is 0.177.

Q: How did the relative viability turn out when NCI-H1793 was run?
A: The relative viability was 0.115.

Q: PC-3 [JPC-3] was tested. Which relative viability did it give?
A: The relative viability was 0.618.

Q: With EKVX as the cell line, how does the relative viability read?
A: Its relative viability is 0.26.

Q: For LC-2-ad, which relative viability is on record?
A: The relative viability was 0.145.

Q: With NCI-H1944 as the cell line, how does the relative viability read?
A: The relative viability was 0.106.

Q: NCI-H1975 was tested. Which relative viability did it give?
A: Its relative viability is 0.115.

Q: For SK-LU-1, which relative viability is on record?
A: The relative viability was 0.104.

Q: With ABC-1 as the cell line, how does the relative viability read?
A: The relative viability was 0.285.

Q: With NCI-H358 as the cell line, how does the relative viability read?
A: Its relative viability is 0.156.

Q: NCI-H661 was tested. Which relative viability did it give?
A: The relative viability was 0.242.
